Measured values: the supplement of paper PMC11451515

How the values were obtained:
Conditions in all cases: 48 h
NOMO1 [1] = assay: cell viability relative to DMSO control; higher = less cytotoxic
Method in brief: (§1)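 NOMO1, SEM and P12-Ichikawa leukemia cells spent at least four passages adapting to each medium before use. They were seeded at 500 cells/well (NOMO1, SEM) or 1000 cells/well (P12-Ichikawa) in 5 μl in 1536-well plates and pin-dosed with library compounds in DMSO at 11 threefold steps from 47 μM down to 0.79 nM. After 48 h at 37°C, CellTiter-Glo One luminescence was read. Viability is reported as a percentage of the DMSO wells on each plate, with cell-free wells as background.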

P12-Ichikawa [2] = assay: as above
Method in brief: as §1

SEM cells [3] = assay: as above
Method in brief: as §1

NOMO1 [4] = assay: AUC of viability dose-response curve (% viability x log10 dose units); higher = less sensitive
Method in brief: (§2)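 Seeding of medium-adapted leukemia cells was at 500 or 1000 cells/well in 1536-well plates, followed by 48 h at 37°C with library compounds in DMSO at 11 threefold doses from 47 μM to 0.79 nM. CellTiter-Glo One luminescence was normalised per plate to DMSO and cell-free wells and fitted as a four-parameter log-logistic function of log10 dose. Area under the curve was integrated by trapezoidal rule, with curves exceeding full viability scaled and curves failing quality control removed.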

P12-Ichikawa [5] = assay: as above
Method in brief: as §2

SEM cells [6] = assay: as above
Method in brief: as §2

Nc1ncnc2c1c(-c1cnc3[nH]ccc3c1)nn2C1CCCC1
cell viability [%]
Conditions	NOMO1 [1]	P12-Ichikawa [2]	SEM cells [3]
HPLM + 10% dialyzed FBS, 0.000781 µM	–	117	111
HPLM + 10% dialyzed FBS, 0.00234 µM	–	121	113
HPLM + 10% dialyzed FBS, 0.00702 µM	–	112	127
HPLM + 10% dialyzed FBS, 0.0211 µM	–	111	122
HPLM + 10% dialyzed FBS, 0.0632 µM	–	103	113
HPLM + 10% dialyzed FBS, 0.19 µM	–	106	105
HPLM + 10% dialyzed FBS, 0.569 µM	–	95.7	95.2
HPLM + 10% dialyzed FBS, 1.71 µM	–	81.3	69.6
HPLM + 10% dialyzed FBS, 5.12 µM	–	71.2	51.1
HPLM + 10% dialyzed FBS, 15.4 µM	–	52.2	36.2
HPLM + 10% dialyzed FBS, 46.1 µM	–	28.7	11
RPMI 5 mM glucose + 10% FBS, 0.000781 µM	108	122	81.9
RPMI 5 mM glucose + 10% FBS, 0.00234 µM	120	118	76.3
RPMI 5 mM glucose + 10% FBS, 0.00702 µM	141	122	85.1
RPMI 5 mM glucose + 10% FBS, 0.0211 µM	135	117	95.4
RPMI 5 mM glucose + 10% FBS, 0.0632 µM	119	106	94.8
RPMI 5 mM glucose + 10% FBS, 0.19 µM	114	96.5	73.6
RPMI 5 mM glucose + 10% FBS, 0.569 µM	112	90.1	68.8
RPMI 5 mM glucose + 10% FBS, 1.71 µM	93.5	63.5	49.2
RPMI 5 mM glucose + 10% FBS, 5.12 µM	66.7	53.7	33.8
RPMI 5 mM glucose + 10% FBS, 15.4 µM	54.4	40.3	24.7
RPMI 5 mM glucose + 10% FBS, 46.1 µM	45.4	26.2	6.03
RPMI 5 mM glucose + 10% dialyzed FBS, 0.000781 µM	106	–	123
RPMI 5 mM glucose + 10% dialyzed FBS, 0.00234 µM	119	–	120
RPMI 5 mM glucose + 10% dialyzed FBS, 0.00702 µM	103	–	125
RPMI 5 mM glucose + 10% dialyzed FBS, 0.0211 µM	109	–	114
RPMI 5 mM glucose + 10% dialyzed FBS, 0.0632 µM	131	–	129
RPMI 5 mM glucose + 10% dialyzed FBS, 0.19 µM	100	–	112
RPMI 5 mM glucose + 10% dialyzed FBS, 0.569 µM	104	–	99.6
RPMI 5 mM glucose + 10% dialyzed FBS, 1.71 µM	81.7	–	73.8
RPMI 5 mM glucose + 10% dialyzed FBS, 5.12 µM	61.8	–	59.5
RPMI 5 mM glucose + 10% dialyzed FBS, 15.4 µM	52.8	–	42.6
RPMI 5 mM glucose + 10% dialyzed FBS, 46.1 µM	45.8	–	6.97

AUC of viability dose-response curve
Conditions	NOMO1 [4]	P12-Ichikawa [5]	SEM cells [6]
HPLM + 10% dialyzed FBS	364	379	356
RPMI 5 mM glucose + 10% FBS	388	343	306
RPMI 5 mM glucose + 10% dialyzed FBS	397	326	360

CCC(C)(Oc1ccc(C2(c3ccc(OC(C)(CC)C(=O)O)cc3)CCCCC2)cc1)C(=O)O (configuration not stated)
cell viability [%]
Conditions	NOMO1 [1]	P12-Ichikawa [2]	SEM cells [3]
HPLM + 10% dialyzed FBS, 0.000781 µM	89.3	109	103
HPLM + 10% dialyzed FBS, 0.00234 µM	107	106	96.8
HPLM + 10% dialyzed FBS, 0.00702 µM	89.4	103	108
HPLM + 10% dialyzed FBS, 0.0211 µM	108	110	103
HPLM + 10% dialyzed FBS, 0.0632 µM	118	99.2	109
HPLM + 10% dialyzed FBS, 0.19 µM	101	103	108
HPLM + 10% dialyzed FBS, 0.569 µM	93.8	103	105
HPLM + 10% dialyzed FBS, 1.71 µM	124	106	108
HPLM + 10% dialyzed FBS, 5.12 µM	102	107	101
HPLM + 10% dialyzed FBS, 15.4 µM	85.1	94	109
HPLM + 10% dialyzed FBS, 46.1 µM	99.4	98.4	77.9
RPMI 5 mM glucose + 10% FBS, 0.000781 µM	104	90.9	103
RPMI 5 mM glucose + 10% FBS, 0.00234 µM	101	95.6	101
RPMI 5 mM glucose + 10% FBS, 0.00702 µM	95.5	97	119
RPMI 5 mM glucose + 10% FBS, 0.0211 µM	99.2	93.2	113
RPMI 5 mM glucose + 10% FBS, 0.0632 µM	102	97.8	108
RPMI 5 mM glucose + 10% FBS, 0.19 µM	89.4	97.2	111
RPMI 5 mM glucose + 10% FBS, 0.569 µM	97.6	97.6	109
RPMI 5 mM glucose + 10% FBS, 1.71 µM	97.7	101	91.3
RPMI 5 mM glucose + 10% FBS, 5.12 µM	92.8	100	104
RPMI 5 mM glucose + 10% FBS, 15.4 µM	84	92.1	102
RPMI 5 mM glucose + 10% FBS, 46.1 µM	84.3	94.1	77.7
RPMI 5 mM glucose + 10% dialyzed FBS, 0.000781 µM	100	87.5	117
RPMI 5 mM glucose + 10% dialyzed FBS, 0.00234 µM	94.4	95.5	101
RPMI 5 mM glucose + 10% dialyzed FBS, 0.00702 µM	111	89	99.1
RPMI 5 mM glucose + 10% dialyzed FBS, 0.0211 µM	96.1	86.6	108
RPMI 5 mM glucose + 10% dialyzed FBS, 0.0632 µM	99.8	96.8	107
RPMI 5 mM glucose + 10% dialyzed FBS, 0.19 µM	94	92	102
RPMI 5 mM glucose + 10% dialyzed FBS, 0.569 µM	107	82.1	118
RPMI 5 mM glucose + 10% dialyzed FBS, 1.71 µM	103	91	110
RPMI 5 mM glucose + 10% dialyzed FBS, 5.12 µM	87	89.1	114
RPMI 5 mM glucose + 10% dialyzed FBS, 15.4 µM	93.9	86.7	113
RPMI 5 mM glucose + 10% dialyzed FBS, 46.1 µM	101	85.3	86.6

AUC of viability dose-response curve
Conditions	NOMO1 [4]	P12-Ichikawa [5]	SEM cells [6]
HPLM + 10% dialyzed FBS	475	458	471
RPMI 5 mM glucose + 10% FBS	456	459	454
RPMI 5 mM glucose + 10% dialyzed FBS	469	426	472

CC(=O)N[C@H]1[C@H](O[C@@H]2c3ccc(c(Cl)c3)Oc3cc4cc(c3O[C@@H]3O[C@H](CO)[C@@H](O)[C@H](O)[C@H]3NC(=O)CCCCCCCC(C)C)Oc3ccc(cc3Cl)C[C@H]3NC(=O)[C@H](N)c5ccc(O)c(c5)Oc5cc(O)cc(c5)[C@H](NC3=O)C(=O)N[C@H]4C(=O)N[C@H]3C(=O)N[C@@H]2C(=O)N[C@@H](C(=O)O)c2cc(O)cc(O[C@H]4O[C@H](CO)[C@@H](O)[C@H](O)[C@@H]4O)c2-c2cc3ccc2O)O[C@H](CO)[C@@H](O)[C@@H]1O
Conditions	cell viability [%]
NOMO1 [1], RPMI 5 mM glucose + 10% dialyzed FBS, 0.000781 µM	123
NOMO1 [1], RPMI 5 mM glucose + 10% dialyzed FBS, 0.00234 µM	131
NOMO1 [1], RPMI 5 mM glucose + 10% dialyzed FBS, 0.00702 µM	123
NOMO1 [1], RPMI 5 mM glucose + 10% dialyzed FBS, 0.0211 µM	144
NOMO1 [1], RPMI 5 mM glucose + 10% dialyzed FBS, 0.0632 µM	146
NOMO1 [1], RPMI 5 mM glucose + 10% dialyzed FBS, 0.19 µM	151
NOMO1 [1], RPMI 5 mM glucose + 10% dialyzed FBS, 0.569 µM	149
NOMO1 [1], RPMI 5 mM glucose + 10% dialyzed FBS, 1.71 µM	162
NOMO1 [1], RPMI 5 mM glucose + 10% dialyzed FBS, 5.12 µM	157
NOMO1 [1], RPMI 5 mM glucose + 10% dialyzed FBS, 15.4 µM	157
NOMO1 [1], RPMI 5 mM glucose + 10% dialyzed FBS, 46.1 µM	151
SEM cells [3], HPLM + 10% dialyzed FBS, 0.000781 µM	96.3
SEM cells [3], HPLM + 10% dialyzed FBS, 0.00234 µM	106
SEM cells [3], HPLM + 10% dialyzed FBS, 0.00702 µM	106
SEM cells [3], HPLM + 10% dialyzed FBS, 0.0211 µM	123
SEM cells [3], HPLM + 10% dialyzed FBS, 0.0632 µM	127
SEM cells [3], HPLM + 10% dialyzed FBS, 0.19 µM	121
SEM cells [3], HPLM + 10% dialyzed FBS, 0.569 µM	127
SEM cells [3], HPLM + 10% dialyzed FBS, 1.71 µM	140
SEM cells [3], HPLM + 10% dialyzed FBS, 5.12 µM	117
SEM cells [3], HPLM + 10% dialyzed FBS, 15.4 µM	98.6
SEM cells [3], HPLM + 10% dialyzed FBS, 46.1 µM	126

AUC of viability dose-response curve
Conditions	NOMO1 [4]	P12-Ichikawa [5]	SEM cells [6]
HPLM + 10% dialyzed FBS	469	463	456
RPMI 5 mM glucose + 10% FBS	470	466	464
RPMI 5 mM glucose + 10% dialyzed FBS	448	468	471

S=C1N\C=N/C2=C1[NH]C=N2
cell viability [%], SEM cells [3]
Conditions	HPLM + 10% dialyzed FBS	RPMI 5 mM glucose + 10% FBS	RPMI 5 mM glucose + 10% dialyzed FBS
0.000781 µM	91.2	104	105
0.00234 µM	116	119	119
0.00702 µM	136	144	138
0.0211 µM	121	119	106
0.0632 µM	131	132	134
0.19 µM	126	139	119
0.569 µM	124	108	91.3
1.71 µM	105	93.3	56.7
5.12 µM	106	79.5	48.5
15.4 µM	90.6	73.2	42.4
46.1 µM	81.7	66.4	33.7

AUC of viability dose-response curve
Conditions	NOMO1 [4]	P12-Ichikawa [5]	SEM cells [6]
HPLM + 10% dialyzed FBS	425	404	445
RPMI 5 mM glucose + 10% FBS	446	377	409
RPMI 5 mM glucose + 10% dialyzed FBS	360	343	360

CN1CCN(CC1)C2=C3OCN(C)N4\C=C(C(O)=O)/C(=O)C(=C34)C=C2F
SEM cells [3], HPLM + 10% dialyzed FBS
Conditions	cell viability [%]
0.000781 µM	66.2
0.00234 µM	116
0.00702 µM	120
0.0211 µM	124
0.0632 µM	115
0.19 µM	115
0.569 µM	117
1.71 µM	116
5.12 µM	102
15.4 µM	105
46.1 µM	82

AUC of viability dose-response curve
Conditions	NOMO1 [4]	P12-Ichikawa [5]	SEM cells [6]
HPLM + 10% dialyzed FBS	454	459	471
RPMI 5 mM glucose + 10% FBS	450	459	466
RPMI 5 mM glucose + 10% dialyzed FBS	465	465	434
